Reference: PMC12892976, “Alkylation-based optimization of antifungal FPPS inhibitors yields a potent, broad-spectrum lipophilic zoledronate derivative” (mBio, 2025)

How the values were obtained:
Assay type in all cases: cell-based
Mucor circinelloides = assay: MIC broth microdilution (CLSI); settings: Mucor circinelloides 80-14-240-5007
Protocol: (§1) Antifungal susceptibility was determined by broth microdilution according to the CLSI guidelines described in M27-Ed4 ([16]).

[1] = test system: Cryptococcus bacillisporus; assay: MIC broth microdilution (CLSI); settings: Cryptococcus bacillisporus NIH179
Protocol: as §1

Cryptococcus tetragattii = assay: MIC broth microdilution (CLSI); settings: Cryptococcus tetragattii WM779
Protocol: as §1

[2] = test system: Cryptococcus deneoformans; assay: MIC broth microdilution (CLSI); settings: Cryptococcus deneoformans JEC21
Protocol: as §1

Pichia kudriavzevii [3] = assay: MIC broth microdilution (CLSI); settings: Pichia kudriavzavii ATCC 6258
Protocol: Antifungal susceptibility was determined by broth microdilution according to the CLSI guidelines described in M27-Ed4 ([16]). […] MFC was determined by back-plating drug-treated cultures from MIC broths onto SDA plates. The MFC was defined as the lowest concentration from which no colonies could be cultured.

Candida auris = assay: MIC broth microdilution (CLSI); settings: Candida auris CDC-0384
Protocol: as §1

Aspergillus niger [4] = assay: MIC broth microdilution (CLSI); settings: Aspergillus niger 111
Protocol: as §1

Aspergillus terreus = assay: MIC broth microdilution (CLSI); settings: Aspergillus terreus 75-16-089-2500
Protocol: as §1

Aspergillus udagawae = assay: MIC broth microdilution (CLSI); settings: Aspergillus udagawae 8G81
Protocol: as §1

Aspergillus felis = assay: MIC broth microdilution (CLSI); settings: Aspergillus felis IHE87256683D6
Protocol: as §1

Aspergillus parafelis = assay: MIC broth microdilution (CLSI); settings: Aspergillus parafelis DTO 341-F2
Protocol: as §1

[5] = test system: Aspergillus frankstonensis; assay: MIC broth microdilution (CLSI); settings: Aspergillus frankstonensis DTO 341-F3
Protocol: as §1

Epidermophyton floccosum = assay: MIC broth microdilution (CLSI); settings: Epidermophyon floccosum R-113
Protocol: as §1

Paraphyton cookei = assay: MIC broth microdilution (CLSI); settings: Paraphyton cookei R-639
Protocol: as §1

Nannizzia gypsea = assay: MIC broth microdilution (CLSI); settings: Nannizzia gypsea R-131
Protocol: as §1

Nannizzia nana = assay: MIC broth microdilution (CLSI); settings: Nannizzia nana R-133
Protocol: as §1

Cryptococcus gattii = assay: checkerboard drug interaction (FICI, MICc);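 note: simplified diagonal checkerboard screen pairing antifungals with FPPS inhibitors, FICI computed under the Loewe additivity model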
Protocol: (§2) Drug interactions between antifungals and FPPS inhibitors were investigated using a simplified checkerboard diagonal screening method ([45]). […] FICIs were determined according to the Loewe additivity model ([17]).

[6] = test system: Cryptococcus bacillisporus; assay: checkerboard drug interaction (FICI, MICc);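 note: interaction of antifungals with FPPS inhibitors assessed by a simplified diagonal checkerboard screen, with FICI computed under the Loewe additivity model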
Protocol: as §2

Fusarium oxysporum = assay: checkerboard drug interaction (FICI, MICc);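 note: simplified diagonal checkerboard screen pairing antifungals with FPPS inhibitors, FICI calculated under the Loewe additivity model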
Protocol: as §2

Fusarium solani = assay: checkerboard drug interaction (FICI, MICc);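 note: simplified diagonal checkerboard screen pairing antifungals with FPPS inhibitors, FICI derived under the Loewe additivity model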
Protocol: as §2

Scedosporium apiospermum = assay: checkerboard drug interaction (FICI, MICc);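 note: simplified diagonal checkerboard screen of antifungal plus FPPS inhibitor pairs, with FICI computed under the Loewe additivity model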
Protocol: as §2

Pichia kudriavzevii [7] = assay: checkerboard drug interaction (FICI, MICc);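 note: antifungal plus FPPS inhibitor interactions tested in a simplified diagonal checkerboard screen, with FICI calculated under the Loewe additivity model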
Protocol: as §2

Candida parapsilosis = assay: checkerboard drug interaction (FICI, MICc);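 note: simplified diagonal checkerboard screen pairing antifungals with FPPS inhibitors, with FICI computed under the Loewe additivity model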
Protocol: as §2

Candida dubliniensis = assay: checkerboard drug interaction (FICI, MICc);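 note: simplified diagonal checkerboard screen pairing antifungals with FPPS inhibitors, FICI calculated under the Loewe additivity model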
Protocol: as §2

Aspergillus niger [8] = assay: checkerboard drug interaction (FICI, MICc);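 note: simplified diagonal checkerboard screen pairing antifungals with FPPS inhibitors, FICI calculated under the Loewe additivity model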
Protocol: as §2

SMILES: CCCCCCCCCCn1cc[n+](CC(O)(P(=O)(O)O)P(=O)(O)O)c1 [10-ZOL, Decyl-zoledronate]
- MIC / MEC (Mucor circinelloides): 1 µg/mL
- MIC / MEC [1]: 2 µg/mL
- MIC / MEC (Cryptococcus tetragattii): 0.5 µg/mL
- MIC / MEC [2]: 1 µg/mL
- MIC / MEC (Pichia kudriavzevii [3]): 4 µg/mL
- MIC / MEC (Candida auris): 2 µg/mL
- MIC / MEC (Aspergillus niger [4]): 4 µg/mL
- MIC / MEC (Aspergillus terreus): 0.5 µg/mL
- MIC / MEC (Aspergillus udagawae): 1 µg/mL
- MIC / MEC (Aspergillus felis): 2 µg/mL
- MIC / MEC (Aspergillus parafelis): 4 µg/mL
- MIC / MEC [5]: 1 µg/mL
- MIC / MEC (Epidermophyton floccosum): 0.5 µg/mL
- MIC / MEC (Paraphyton cookei): 0.5 µg/mL
- MIC / MEC (Nannizzia gypsea): 0.5 µg/mL
- MIC / MEC (Nannizzia nana): 1 µg/mL
- FICI (Cryptococcus gattii; 5FC:10-ZOL): 1
- FICI (Cryptococcus gattii; CAS:10-ZOL): 0.5
- FICI (Cryptococcus gattii; FLC:10-ZOL): 1.5
- FICI (Cryptococcus gattii; KET:10-ZOL): 0.5
- FICI (Cryptococcus gattii; VOR:10-ZOL): 0.8
- bisphosphonate MICc (Cryptococcus gattii; with 5FC): 0.25
- bisphosphonate MICc (Cryptococcus gattii; with AMB): 0.125
- bisphosphonate MICc (Cryptococcus gattii; with CAS): 0.125
- bisphosphonate MICc (Cryptococcus gattii; with FLC): 0.5
- bisphosphonate MICc (Cryptococcus gattii; with ITR): 0.125
- bisphosphonate MICc (Cryptococcus gattii; with KET): 0.125
- bisphosphonate MICc (Cryptococcus gattii; with VOR): 0.125
- FICI ([6]; ITR:10-ZOL): 0.61
- bisphosphonate MICc ([6]; with 5FC): 1
- bisphosphonate MICc ([6]; with AMB): 0.125
- bisphosphonate MICc ([6]; with CAS): 1
- bisphosphonate MICc ([6]; with FLC): 0.125
- bisphosphonate MICc ([6]; with ITR): 0.125
- bisphosphonate MICc ([6]; with KET): 0.125
- bisphosphonate MICc ([6]; with VOR): 0.125
- FICI (Fusarium oxysporum; 5FC:10-ZOL): ≥4
- FICI (Fusarium oxysporum; AMB:10-ZOL): 1.03
- FICI (Fusarium oxysporum; CAS:10-ZOL): ≥4
- FICI (Fusarium oxysporum; VOR:10-ZOL): 0.5
- bisphosphonate MICc (Fusarium oxysporum; with 5FC): 4
- bisphosphonate MICc (Fusarium oxysporum; with AMB): 0.25
- bisphosphonate MICc (Fusarium oxysporum; with CAS): 1
- bisphosphonate MICc (Fusarium oxysporum; with FLC): 1
- bisphosphonate MICc (Fusarium oxysporum; with ITR): 1
- bisphosphonate MICc (Fusarium oxysporum; with KET): 1
- bisphosphonate MICc (Fusarium oxysporum; with VOR): 2
- FICI (Fusarium solani; 5FC:10-ZOL): ≥4
- FICI (Fusarium solani; CAS:10-ZOL): 2
- FICI (Fusarium solani; VOR:10-ZOL): 0.53
- bisphosphonate MICc (Fusarium solani; with 5FC): 1
- bisphosphonate MICc (Fusarium solani; with AMB): 0.25
- bisphosphonate MICc (Fusarium solani; with CAS): 4
- bisphosphonate MICc (Fusarium solani; with FLC): 0.5
- bisphosphonate MICc (Fusarium solani; with ITR): 0.5
- bisphosphonate MICc (Fusarium solani; with KET): 2
- bisphosphonate MICc (Fusarium solani; with VOR): 0.125
- FICI (Scedosporium apiospermum; 5FC:10-ZOL): 2.25
- FICI (Scedosporium apiospermum; KET:10-ZOL): 0.53
- FICI (Scedosporium apiospermum; VOR:10-ZOL): 0.53
- bisphosphonate MICc (Scedosporium apiospermum; with 5FC): 1
- bisphosphonate MICc (Scedosporium apiospermum; with AMB): 2
- bisphosphonate MICc (Scedosporium apiospermum; with CAS): 1
- bisphosphonate MICc (Scedosporium apiospermum; with FLC): 1
- bisphosphonate MICc (Scedosporium apiospermum; with ITR): 0.25
- bisphosphonate MICc (Scedosporium apiospermum; with KET): 0.125
- bisphosphonate MICc (Scedosporium apiospermum; with VOR): 0.125
- FICI (Pichia kudriavzevii [7]; AMB:10-ZOL): 1
- FICI (Pichia kudriavzevii [7]; KET:10-ZOL): 1.5
- FICI (Pichia kudriavzevii [7]; VOR:10-ZOL): 1.03
- bisphosphonate MICc (Pichia kudriavzevii [7]; with 5FC): 1
- bisphosphonate MICc (Pichia kudriavzevii [7]; with AMB): 2
- bisphosphonate MICc (Pichia kudriavzevii [7]; with CAS): 0.5
- bisphosphonate MICc (Pichia kudriavzevii [7]; with FLC): 0.5
- bisphosphonate MICc (Pichia kudriavzevii [7]; with ITR): 0.25
- bisphosphonate MICc (Pichia kudriavzevii [7]; with KET): 2
- bisphosphonate MICc (Pichia kudriavzevii [7]; with VOR): 0.125
- FICI (Candida parapsilosis; CAS:10-ZOL): 0.5
- bisphosphonate MICc (Candida parapsilosis; with 5FC): 1
- bisphosphonate MICc (Candida parapsilosis; with AMB): 0.125
- bisphosphonate MICc (Candida parapsilosis; with CAS): 0.25
- bisphosphonate MICc (Candida parapsilosis; with FLC): 0.25
- bisphosphonate MICc (Candida parapsilosis; with ITR): 0.125
- bisphosphonate MICc (Candida parapsilosis; with KET): 0.25
- bisphosphonate MICc (Candida parapsilosis; with VOR): 0.25
- FICI (Candida dubliniensis; CAS:10-ZOL): 1.18
- FICI (Candida dubliniensis; KET:10-ZOL): 0.43
- FICI (Candida dubliniensis; VOR:10-ZOL): 1.55
- bisphosphonate MICc (Candida dubliniensis; with 5FC): 0.25
- bisphosphonate MICc (Candida dubliniensis; with AMB): 0.125
- bisphosphonate MICc (Candida dubliniensis; with CAS): 0.125
- bisphosphonate MICc (Candida dubliniensis; with FLC): 0.25
- bisphosphonate MICc (Candida dubliniensis; with ITR): 0.125
- bisphosphonate MICc (Candida dubliniensis; with KET): 0.125
- bisphosphonate MICc (Candida dubliniensis; with VOR): 1
- FICI (Aspergillus niger [8]; 5FC:10-ZOL): ≥4
- FICI (Aspergillus niger [8]; AMB:10-ZOL): 2.17
- FICI (Aspergillus niger [8]; CAS:10-ZOL): 1
- bisphosphonate MICc (Aspergillus niger [8]; with 5FC): 1
- bisphosphonate MICc (Aspergillus niger [8]; with AMB): 1
- bisphosphonate MICc (Aspergillus niger [8]; with CAS): 2
- bisphosphonate MICc (Aspergillus niger [8]; with FLC): 0.5
- bisphosphonate MICc (Aspergillus niger [8]; with ITR): 1
- bisphosphonate MICc (Aspergillus niger [8]; with KET): 2
- bisphosphonate MICc (Aspergillus niger [8]; with VOR): 0.5
